In publication PMC5561075, “Identification and Characterization of a Bacterial Homolog of Chloride Intracellular Channel (CLIC) Protein” (Scientific Reports, 2017):

Target: Ec SspA (Escherichia coli, UniProt P0ACA3)
Assay: single-channel recording in planar lipid bilayers
Format: biochemical
Conditions: channel blocker, POPE:POPS:cholesterol 4:1:1, 500 mM KCl cis vs 50 mM KCl trans, 10 mM Tris-HCl pH 7.4, 1 mM DTT, room temperature

Chain of Ec SspA (P0ACA3 whole entry): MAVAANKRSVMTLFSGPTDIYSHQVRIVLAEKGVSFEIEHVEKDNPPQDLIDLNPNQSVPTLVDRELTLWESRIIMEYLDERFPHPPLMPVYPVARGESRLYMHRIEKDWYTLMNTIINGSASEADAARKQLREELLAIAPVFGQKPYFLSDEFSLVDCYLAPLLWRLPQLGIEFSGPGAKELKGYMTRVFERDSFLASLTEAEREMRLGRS

open probability at 100 μM: 0.1 ± 0.05
Compound: CC1(C2CCCC2)Cc2cc(OCC(=O)O)c(Cl)c(Cl)c2C1=O (stereo not shown) [IAA-94]
